From ChEMBL document CHEMBL5625202, “Synthesis, characterization and anti-breast cancer activities of stachydrine derivatives” (Eur J Med Chem, 2023)
Active and inactive are the calls of the source. No cut-off for these calls is given here.

Tests used:
4T1 [1] = experiment: Induction of apoptosis in mouse 4T1 cells assessed as apoptotic rate at 2500 micromol/L incubated for 24 hrs by Annexin-V/PI staining based flow cytometry relative to control; format: functional; conditions: dose 2500 µmol/L, at 2500 µM
[2] = Toxicity in BALB/c mouse implanted with mouse 4T1 cells assessed as increase in lymphocytes at 0.2 mmol/Kg, po administered once every day for 14 days by routine blood analysis; format: organism-based; conditions: in vivo, 336 h, time 14 day
[3] = AUC (0 to t) in Sprague-Dawley rat plasma at 10 mg/kg, iv measured upto 6 hrs by LC-MS/MS analysis; format: ADME, organism-based
[4] = Stability of the compound in Sprague-Dawley rat plasma at 10 mg/kg, po measured after 6 hrs by LC-MS/MS analysis; format: ADME, organism-based; conditions: in vivo
[5] = Toxicity in BALB/c mouse implanted with mouse 4T1 cells assessed as effect on CREA level at 0.2 mmol/Kg, po administered once every day for 14 days by routine blood analysis; format: organism-based; conditions: in vivo, 336 h, time 14 day
[6] = Tmax in Sprague-Dawley rat plasma at 10 mg/kg, iv measured upto 6 hrs by LC-MS/MS analysis; format: ADME, organism-based
4T1 [7] = experiment: Induction of apoptosis in mouse 4T1 cells assessed as decrease in Bcl-2 expression at 5 mM incubated for 24 hrs by Western blot analysis; format: functional, cell-based
4T1 [8] = experiment: Induction of apoptosis in mouse 4T1 cells assessed as apoptotic rate at 10000 micromol/L incubated for 24 hrs by Annexin-V/PI staining based flow cytometry relative to control; format: functional; conditions: dose 10000 µmol/L, at 10000 µM
4T1 [9] = experiment: Antitumor activity against mouse 4T1 cells implanted in BALB/c mouse assessed as tumor cell shrinkage at 0.2 mmol/Kg, po administered once every day for 14 days by histological staining based analysis; format: functional, organism-based; conditions: time 14.0 day
4T1 [10] = experiment: Induction of apoptosis in mouse 4T1 cells assessed as increase in Bax expression at 5 mM incubated for 24 hrs by Western blot analysis; format: functional, cell-based
[11] = Toxicity in BALB/c mouse implanted with mouse 4T1 cells assessed as increase in monocytes at 0.2 mmol/Kg, po administered once every day for 14 days by routine blood analysis; format: organism-based; conditions: in vivo, 336 h, time 14 day
[12] = Toxicity in BALB/c mouse implanted with mouse 4T1 cells assessed as increase in neutrophil granulocytes at 0.2 mmol/Kg, po administered once every day for 14 days by routine blood analysis; format: organism-based; conditions: in vivo, 336 h, time 14 day
4T1 [13] = experiment: Antitumor activity against mouse 4T1 cells implanted in BALB/c mouse assessed as tumor growth inhibition at 0.2 mmol/Kg, po administered once every day for 14 days relative to control; format: functional; conditions: 4T1, 336 h, time 14 day, read-out: TGI
4T1 [14] = experiment: Induction of apoptosis in mouse 4T1 cells assessed as increase in pro-caspase-3 expression at 5 mM incubated for 24 hrs by Western blot analysis; format: functional, cell-based
[15] = Toxicity in BALB/c mouse implanted with mouse 4T1 cells assessed as increase in splenic red pulp at 0.2 mmol/Kg, po administered once every day for 14 days; format: organism-based; conditions: in vivo, 336 h, time 14 day
[16] = Toxicity in BALB/c mouse implanted with mouse 4T1 cells assessed as splenic edema at 0.2 mmol/Kg, po administered once every day for 14 days; format: organism-based; conditions: in vivo, 336 h, time 14 day
[17] = Toxicity in BALB/c mouse implanted with mouse 4T1 cells assessed as blurred spleen morphology at 0.2 mmol/Kg, po administered once every day for 14 days; format: organism-based; conditions: in vivo, 336 h, time 14 day
4T1 [18] = experiment: Anticancer activity against mouse 4T1 cells assessed as inhibition of cell growth incubated for 24 hrs by CCK-8 assay; format: functional, cell-based; conditions: 4T1, 24 h
4T1 [19] = experiment: Antitumor activity against mouse 4T1 cells implanted in BALB/c mouse assessed as tumor cell necrosis at 0.2 mmol/Kg, po administered once every day for 14 days by histological staining based analysis; format: functional, organism-based; conditions: time 14.0 day
4T1 [20] = experiment: Antitumor activity against mouse 4T1 cells implanted in BALB/c mouse assessed as change in tumor weight at 0.2 mmol/Kg, po administered once every day for 14 days; format: functional, organism-based; conditions: time 14.0 day
[21] = Toxicity in BALB/c mouse implanted with mouse 4T1 cells assessed as change in liver histopathology at 0.2 mmol/Kg, po administered once every day for 14 days; format: organism-based; conditions: in vivo, 336 h, time 14 day
4T1 [22] = experiment: Induction of apoptosis in mouse 4T1 cells assessed as apoptotic rate at 5000 micromol/L incubated for 24 hrs by Annexin-V/PI staining based flow cytometry relative to control; format: functional; conditions: dose 5000 µmol/L, at 5000 µM
4T1 [23] = experiment: Inhibition of cell migration in mouse 4T1 cells assessed as reduction in wound healing incubated for 24 hrs by microscopic analysis; format: functional, cell-based
4T1 [24] = experiment: Induction of mitochondrial membrane potential loss in mouse 4T1 cells assessed as green fluorescence at 5000 uM incubated for 24 hrs by JC-1 staining based flow cytometric analysis (reference value: 11.7%); format: cell-based
[25] = Oral bioavailability in Sprague-Dawley rat at 10 mg/kg measured upto 6 hrs by LC-MS/MS analysis; format: ADME, organism-based; conditions: in vivo
[26] = Toxicity in BALB/c mouse implanted with mouse 4T1 cells assessed as change in kidney histopathology at 0.2 mmol/Kg, po administered once every day for 14 days; format: organism-based; conditions: in vivo, 336 h, time 14 day
[27] = Toxicity in BALB/c mouse implanted with mouse 4T1 cells assessed as increase in white blood cells at 0.2 mmol/Kg, po administered once every day for 14 days by routine blood analysis; format: organism-based; conditions: in vivo, 336 h, time 14 day
4T1 [28] = experiment: Induction of mitochondrial membrane potential loss in mouse 4T1 cells assessed as red fluorescence at 5000 uM incubated for 24 hrs by JC-1 staining based flow cytometric analysis (Rvb= 87.9%); format: cell-based
[29] = Toxicity in BALB/c mouse implanted with mouse 4T1 cells assessed as increase in ALT level at 0.2 mmol/Kg, po administered once every day for 14 days by routine blood analysis; format: organism-based; conditions: in vivo, 336 h, time 14 day
[30] = Toxicity in BALB/c mouse implanted with mouse 4T1 cells assessed as increase in AST level at 0.2 mmol/Kg, po administered once every day for 14 days by routine blood analysis; format: organism-based; conditions: in vivo, 336 h, time 14 day
4T1 [31] = experiment: Induction of apoptosis in mouse 4T1 cells assessed as increase in cleaved caspase-3 expression at 5 mM incubated for 24 hrs by Western blot analysis; format: functional, cell-based
[32] = Half life in Sprague-Dawley rat plasma at 10 mg/kg, iv measured upto 6 hrs by LC-MS/MS analysis; format: ADME, organism-based
[33] = Cmax in Sprague-Dawley rat plasma at 10 mg/kg, iv measured upto 6 hrs by LC-MS/MS analysis; format: ADME, organism-based
[34] = Toxicity in BALB/c mouse implanted with mouse 4T1 cells assessed as effect on BUN level at 0.2 mmol/Kg, po administered once every day for 14 days by routine blood analysis; format: organism-based; conditions: in vivo, 336 h, time 14 day
[35] = Toxicity in BALB/c mouse implanted with mouse 4T1 cells assessed as change in heart histopathology at 0.2 mmol/Kg, po administered once every day for 14 days; format: organism-based; conditions: in vivo, 336 h, time 14 day
[36] = Toxicity in BALB/c mouse implanted with mouse 4T1 cells assessed as change in lung histopathology at 0.2 mmol/Kg, po administered once every day for 14 days; format: organism-based; conditions: in vivo, 336 h, time 14 day
[37] = Toxicity in BALB/c mouse implanted with mouse 4T1 cells assessed as reduction in spleen index at 0.2 mmol/Kg, po administered once every day for 14 days relative to control; format: organism-based; conditions: in vivo, 336 h, time 14 day
[38] = Toxicity in BALB/c mouse implanted with mouse 4T1 cells assessed as body weight loss at 0.2 mmol/Kg, po administered once daily for 14 days; format: organism-based; conditions: in vivo, 336 h, time 14 day

C[N+]1(C)CCCC1C(=O)[O-] (stereo not drawn)
Activity (4T1 [1]): 20.38% | Activity [2]: Toxic | AUC(0-t) at 6 h [3]: 18500 ng·h/mL | Stability [4]: Unstable | Activity [5]: Non-Toxic | Tmax [6]: 1.02 min | Activity (4T1 [7]): Active | Activity (4T1 [8]): 32.47% | Activity (4T1 [9]): Active | Activity (4T1 [10]): Active | Activity [11]: Toxic | Activity [12]: Toxic | inhibition in vivo at 200 µmol/kg (4T1 [13]): 3.89% | Activity (4T1 [14]): inactive | Activity [15]: Toxic | Activity [16]: Toxic | Activity [17]: Toxic | IC50 (4T1 [18]): 39 mM | Activity (4T1 [19]): Active | Activity (4T1 [20]): Active | Activity [21]: Non-Toxic | Activity (4T1 [22]): 28.09% | inhibition (4T1 [23]): Dose-Dependent Effect | Activity (4T1 [24]): 29.6% | bioavailability [25]: 100% | Activity [26]: Non-Toxic | Activity [27]: Toxic | Activity (4T1 [28]): 70.4% | Activity [29]: Toxic | Activity [30]: Toxic | Activity (4T1 [31]): inactive | half-life [32]: 69.6 min | Cmax [33]: 94.6 µg/mL | Activity [34]: Non-Toxic | Activity [35]: Non-Toxic | Activity [36]: Non-Toxic | Activity [37]: Toxic | Activity [38]: Toxic
